Laboratory results: patent publication US8106197B2, “Aminoheteroaryl compounds as protein kinase inhibitors” (Pfizer Inc., priority 2003, dated 2012)

molecular target: T1, HGFR (Homo sapiens, UniProt P08581); assay: HGFR continuous-coupled spectrophotometric assay; type: biochemical; settings: not given
T1 construct: purchased Upstate 14-526
T1 sequence (P08581 974-1390 limits assumed): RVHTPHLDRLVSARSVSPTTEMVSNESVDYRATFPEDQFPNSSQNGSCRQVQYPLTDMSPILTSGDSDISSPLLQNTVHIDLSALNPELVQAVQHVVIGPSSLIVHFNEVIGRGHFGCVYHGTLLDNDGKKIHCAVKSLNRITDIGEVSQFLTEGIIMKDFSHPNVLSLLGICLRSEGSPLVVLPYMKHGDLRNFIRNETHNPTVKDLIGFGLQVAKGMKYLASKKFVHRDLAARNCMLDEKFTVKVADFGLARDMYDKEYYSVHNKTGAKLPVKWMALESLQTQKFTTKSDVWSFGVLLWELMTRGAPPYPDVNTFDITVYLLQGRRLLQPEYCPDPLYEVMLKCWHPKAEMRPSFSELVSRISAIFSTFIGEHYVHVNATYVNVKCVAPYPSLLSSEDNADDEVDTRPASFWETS

For `CCOC(=O)C1CCN(C(=O)c2ccc(COc3cc(-c4ccc(C(=O)N5CCC(N6CCCC6)CC5)cc4)cnc3N)cc2)CC1`, which “% inhibition” value is on record?
Its value is “% inhibition = 16”.

With `Nc1ncc(-c2ccc(C(=O)N3CCC(N4CCCC4)CC3)cc2)cc1OCc1cccc(C(=O)NCCc2ccccn2)c1` as the compound, how does the “% inhibition” value read?
Its value is “% inhibition = 12”.

`Nc1ncc(-c2ccc(C(=O)N3CCC(N4CCCC4)CC3)cc2)cc1OCc1ccc(C(=O)NCCN2CCOCC2)cc1` was tested. Which “% inhibition” value did it give?
The value was “% inhibition = 11”.

With `Cc1ccnc2nc(COc3cc(-c4ccc(C(=O)N5CCC(N6CCCC6)CC5)cc4)cnc3N)cn12` as the compound, how does the “% inhibition” value read?
Its value is “% inhibition = 10”.

Which “% inhibition” value does the source give for `Nc1ncc(-c2ccc(C(=O)N3CCC(N4CCCC4)CC3)cc2)cc1OCc1ccc2ccc(Cl)cc2n1` here?
The value was “% inhibition = 24”.

For `N#Cc1nc(COc2cc(-c3ccc(C(=O)N4CCC(N5CCCC5)CC4)cc3)cnc2N)cnc1N`, which “% inhibition” value is on record?
Its value is “% inhibition = 9”.

`Nc1ncc(-c2ccc(C(=O)N3CCC(N4CCCC4)CC3)cc2)cc1OCc1nc2ncccn2n1` was tested. Which “% inhibition” value did it give?
The value was “% inhibition = 19”.

same assay, conditions: Table 5; percent c-MET inhibition at 50 nM

How did the inhibition at 0.05 µM turn out when `COC(=O)C(CO)NC(=O)c1ccc(-c2cnc(N)c(OC(C)c3c(Cl)ccc(F)c3Cl)c2)cc1` (centres unmarked) was run?
Its inhibition at 0.05 µM is 81%.

same assay, conditions: Table 5; percent c-MET inhibition at 50 nM; 0.05 µM

How did the “% inhibition” value turn out when `CC(Oc1cc(-c2ccc(C(=O)N[C@H](C)C3CCCCC3)cc2)cnc1N)c1c(Cl)ccc(F)c1Cl` (some centres unmarked) [drawing 1071] was run?
The value was “% inhibition = 54”.

same assay, conditions: Table 6; percent c-MET inhibition at 1 μM; read-out: % inhibition

`Cc1noc([C@H]2CC[C@H](CNC(=O)c3cnc(N)c(OCc4c(Cl)cccc4Cl)c3)CC2)n1` was tested. Which inhibition at 1 µM did it give?
Its inhibition at 1 µM is 3%.

With `Nc1ncc(C(=O)N2CCC(COCc3ccccc3F)CC2)cc1OCc1c(Cl)cccc1Cl` as the compound, how does the inhibition at 1 µM read?
The inhibition at 1 µM was 10%.

Which inhibition at 1 µM does the source give for `Nc1ncc(C(=O)N[C@@H]2CCCC[C@H]2CO)cc1OCc1c(Cl)cccc1Cl` here?
Its inhibition at 1 µM is 24%.

With `Nc1ncc(C(=O)N2CCn3c(CO)nnc3C2)cc1OCc1c(Cl)cccc1Cl` as the compound, how does the inhibition at 1 µM read?
Its inhibition at 1 µM is 31%.

With `Nc1ncc(C(=O)NCc2noc(C(=O)N3CC[C@H](O)C3)n2)cc1OCc1c(Cl)cccc1Cl` as the compound, how does the inhibition at 1 µM read?
The inhibition at 1 µM was 26%.

For `CN(C)C(=O)CN1CCN(C(=O)c2cnc(N)c(OCc3c(Cl)cccc3Cl)c2)CC1`, which inhibition at 1 µM is on record?
Its inhibition at 1 µM is 42%.

Which inhibition at 1 µM does the source give for `C[C@@H]1CCC[C@H](C)N1CCNC(=O)c1cnc(N)c(OCc2c(Cl)cccc2Cl)c1` here?
The inhibition at 1 µM was 2%.

molecular target: T2, GST fusion protein containing the Met kinase domain (Homo sapiens, UniProt P08581); assay: MET transphosphorylation assay (ELISA, poly(glu-tyr) substrate); type: biochemical; settings: not given
T2 construct: Purified GST fusion protein containing the Met kinase domain, SUGEN, Inc
T2 sequence (P08581 1078-1345 limits assumed): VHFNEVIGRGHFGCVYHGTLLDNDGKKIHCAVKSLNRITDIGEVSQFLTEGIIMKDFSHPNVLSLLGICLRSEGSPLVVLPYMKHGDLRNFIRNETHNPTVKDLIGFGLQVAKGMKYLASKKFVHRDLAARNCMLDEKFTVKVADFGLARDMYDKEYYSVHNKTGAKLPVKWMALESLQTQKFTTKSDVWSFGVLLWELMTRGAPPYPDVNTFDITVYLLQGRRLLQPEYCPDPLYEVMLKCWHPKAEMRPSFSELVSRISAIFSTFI

Which IC50 does the source give for `Nc1ncc(-c2ccccc2)cc1OCc1c(Cl)cccc1Cl` [Example I-9, 3-(2,6-Dichloro-benzyloxy)-5-phenyl-pyridin-2-ylamine] here?
The IC50 was 3.9 µM.
